3 compounds from ChEMBL document CHEMBL5126589, “Drug design and DNA structural research inspired by the Neidle laboratory: DNA minor groove binding and transcription factor inhibition by thiophene diamidines” (Bioorg Med Chem, 2022) can be followed below.

A short description of assay [1]: Binding affinity to biotin labeled hairpin DNA 5'-GAATTC-3' (unknown origin) assessed as equilibrium dissociation constant by sensor chip immobilization based surface plasmon resonance analysis. (Surface plasmon resonance follows binding to a sensor surface in real time, without labels.)
Assay [2] in a line: Binding affinity to biotin labeled hairpin DNA 5'-GAATTC-3' (unknown origin) assessed as association constant by sensor chip immobilization based surface plasmon resonance analysis.
The nature of assay [3]: Binding affinity to biotin labeled hairpin DNA 5'-GAATTC-3' (unknown origin) assessed as dissociation rate constant by sensor chip immobilization based surface plasmon resonance analysis.
The nature of assay [4]: Inhibition of PU.1 binding to biotin labeled lambdaB DNA (unknown origin) by sensor chip immobilization based surface plasmon resonance analysis.
Assay [5] is described as follows: Binding affinity to biotin labeled hairpin DNA 5'-GAATTC-3' (unknown origin) assessed as equilibrium binding constant by sensor chip immobilization based surface plasmon resonance analysis.

The term Kd denotes a measure of binding affinity in units of concentration. Broadly, the IC50 is the midpoint of a concentration-inhibition curve. A low value points to greater potency.

For `N=C(N)c1ccc(-c2ccc(-c3ccc(C(=N)N)cc3)o2)cc1` [FURAMIDINE], the dissociation constant (Kd) in assay [1] amounted to 140 nM.

As to `N=C(N)c1ccc(-c2ccc(-c3cc4ccc(C(=N)N)cc4[nH]3)s2)cc1`, the dissociation constant (Kd) in assay [1] is 6.5 nM; in assay [3] it was 2.9 10^-3/s. The Ka in assay [2] is 4.5 10^5/M/s. The same compound showed a half-maximal inhibitory concentration (IC50) in assay [4] of 23 nM.

Turning to `N=C(N)c1ccc(-c2ccc(-c3nc4ccc(C(=N)N)cc4[nH]3)s2)cc1`, the Kd in assay [1] was 1.5 nM; in assay [3] it was 8.9 10^-3/s. In addition, in assay [2], the Ka was 5.8 10^6/M/s. Moreover, in assay [5], the KA is 6.6 10^8/M. In addition, in assay [4], the IC50 amounted to 9 nM.
